Legend:
[1] = molecular target: T1, HIV-integrase (Human immunodeficiency virus type 1 group M subtype B, UniProt P04585); test: in-vitro activity against HIV-integrase (HIV Integrase Inhibition, SPA bead assay); assay type: biochemical; details: recombinant integrase, activity class
T1 construct: Recombinant integrase (0.26 ng) was incubated with the beads
How it was run: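 Recombinant integrase (0.26 ng) pre-bound for 90 min at 37 °C to biotinylated substrate DNA on streptavidin SPA beads, then washed. Inhibitors added with 33P-labelled target DNA; reaction stopped with 10 mM EDTA. Scintillation CPM taken as integration signal.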

## O=C(NCc1ccc(F)cc1-n1cncn1)c1nc2n(c(=O)c1O)CCCOC21CCOCC1 [Example 118, Spiro[4H-pyran-4,10′(4′H)-[6H]pyrimido[2,1-c][1,4]oxazepine]-2′-carboxamide, N-[[4-fluoro-2-(1H-1,2,4-triazol-1-yl)phenyl]methyl]-2,3,5,6,7′,8′-hexahydro-3′-hydroxy-4′-oxo-]
[1]; Table 1a
  IC50: 1 to 10 nM
other
  melting point: 247 °C (dec.)

## CNC(=O)c1cc(F)ccc1CNC(=O)c1nc2n(c(=O)c1O)CCCOC21CCOCC1 [Example 115, Spiro[4H-pyran-4,10′(4′H)-[6H]pyrimido[2,1-c][1,4]oxazepine]-2′-carboxamide, N-[[4-fluoro-2-[(methylamino)carbonyl]phenyl]methyl]-2,3,5,6,7′,8′-hexahydro-3′-hydroxy-4′-oxo-]
[1]; Table 1a
  IC50: 1 to 10 nM
other
  melting point: 211 °C (dec.)

## Cc1ncnn1-c1cc(F)ccc1CNC(=O)c1nc2n(c(=O)c1O)CCCOC21CCOCC1 [Example 120, Spiro[4H-pyran-4,10′(4′H)-[6H]pyrimido[2,1-c][1,4]oxazepine]-2′-carboxamide, N-[[4-fluoro-2-(5-methyl-1H-1,2,4-triazol-1-yl)phenyl]methyl]-2,3,5,6,7′,8′-hexahydro-3′-hydroxy-4′-oxo-]
[1]; Table 1a
  IC50: 10 to 100 nM
other
  melting point: 204 °C

## O=C(NCc1ccc(F)cc1-n1ccnn1)c1nc2n(c(=O)c1O)CCCOC21CCOCC1 [Example 122, Spiro[4H-pyran-4,10′(4′H)-[6H]pyrimido[2,1-c][1,4]oxazepine]-2′-carboxamide, N-[[4-fluoro-2-(1H-1,2,3-triazol-1-yl)phenyl]methyl]-2,3,5,6,7′,8′-hexahydro-3′-hydroxy-4′-oxo-]
[1]; Table 1a
  IC50: 1 to 10 nM
other
  melting point: 239 °C (dec.)

## CS(=O)(=O)c1cc(F)ccc1CNC(=O)c1nc2n(c(=O)c1O)CCCOC21CCOCC1 [Example 116, Spiro[4H-pyran-4,10′(4′H)-[6H]pyrimido[2,1-c][1,4]oxazepine]-2′-carboxamide, N-[[4-fluoro-2-(methylsulfonyl)phenyl]methyl]-2,3,5,6,7′,8′-hexahydro-3′-hydroxy-4′-oxo-]
[1]; Table 1a
  IC50: 10 to 100 nM
other
  melting point: 257 °C (dec.)

## COP(=O)(OC)c1cc(F)ccc1CNC(=O)c1nc2n(c(=O)c1O)CCCOC21CCOCC1 [Example 117, Phosphonic acid, [5-fluoro-2-[[[(2,3,5,6,7′,8′-hexahydro-3′-hydroxy-4′-oxospiro[4H-pyran-4,10′(4′H) -[6H]pyrimido[2,1-c][1,4]oxazepin]-2′-yl)carbonyl]amino]methyl]phenyl]-, dimethyl ester]
[1]; Table 1a
  IC50: 10 to 100 nM
other
  melting point: 234 °C (dec.)

## Cc1ncn(-c2ccccc2CNC(=O)c2nc3n(c(=O)c2O)CCCOC32CCOCC2)n1 [Example 121, Spiro[4H-pyran-4,10′(4′H)-[6H]pyrimido[2,1-c][1,4]oxazepine]-2′-carboxamide, 2,3,5,6,7,8′-hexahydro-3′-hydroxy-N-[[2-(3-methyl-1H-1,2,4-triazol-1-yl)phenyl]methyl]-4′-oxo-]
[1]; Table 1a
  IC50: 10 to 100 nM
other
  melting point: 247 °C (dec.)

## O=C(NCc1ccc(F)cc1-n1ccnn1)c1nc2n(c(=O)c1O)CCOC21CCC1 [Example 101, Spiro[cyclobutane-1,9′(4′H)-pyrimido[2,1-c][1,4]oxazine]-2′-carboxamide, N-[[4-fluoro-2-(1H-1,2,3-triazol-1-yl)phenyl]methyl]-6′,7′-dihydro-3′-hydroxy-4′-oxo-]
[1]; Table 1a
  IC50: 1 to 10 nM

## O=C(NCc1ccc(F)cc1-n1cncn1)c1nc2n(c(=O)c1O)CCCC21CCC1 [Example 78, N-[[4-fluoro-2-(1H-1,2,4-triazol-1-yl)phenyl]methyl]-7′,8′-dihydro-3′-hydroxy-4′-oxo-spiro[cyclobutane-1,9′(6^1′H)-[4H]pyrido[1,2-α]pyrimidine]-2′-carboxamide]
[1]; Table 1
  IC50: 1 to 10 nM

## Cc1ccc(CNC(=O)c2nc3n(c(=O)c2O)CCOC32CCCC2)cc1 [Example 19, 6′,7′-dihydro-3′-hydroxy-N-[(4-methylphenyl)methyl]-4′-oxo-spiro[cyclopentane-1,9′(4′H)-pyrimido[2,1-c][1,4]oxazine]-2′-carboxamide]
[1]; Table 1
  IC50: 10 to 100 nM

## O=C(NCc1ccccc1N1CCCCS1(=O)=O)c1nc2n(c(=O)c1O)CCOC21CCC1 [Example 56, N-[[2-(tetrahydro-1,1-dioxido-2H-1,2-thiazin-2-yl)phenyl]methyl]-6′,7′-dihydro-3′-hydroxy-4′-oxo-spiro[cyclobutane-1,9′(4′H)-pyrimido[2,1-c][1,4]oxazine]-2′-carboxamide]
[1]; Table 1
  IC50: 10 to 100 nM

## Cc1ncn(-c2cc(F)ccc2CNC(=O)c2nc3n(c(=O)c2O)CCOC32CCCC2)n1 [Example 129, Spiro[cyclopentane-1,9′(4′H)-pyrimido[2,1-c][1,4]oxazine]-2′-carboxamide, N-[[4-fluoro-2-(3-methyl-1H-1,2,4-triazol-1-yl)phenyl]methyl]-6′,7′-dihydro-3′-hydroxy-4′-oxo-]
[1]; Table 1a
  IC50: 1 to 10 nM

## CN1CCn2c(nc(C(=O)NCc3ccc(F)cc3-n3cncn3)c(O)c2=O)C12CCCCC2 [Example 96, Spiro[cyclohexane-1,9′(6′H)-[4H]pyrazino[1,2-a]pyrimidine]-2′-carboxamide, N-[[4-fluoro-2-(1H-1,2,4-triazol-1-yl)phenyl]methyl]-7′,8′-dihydro-3′-hydroxy-8′-methyl-4′-oxo-]
[1]; Table 1a
  IC50: 1 to 10 nM

## CC(C)(C)c1cn(-c2cc(F)ccc2CNC(=O)c2nc3n(c(=O)c2O)CCOC32CCC2)nn1 [Example 103, Spiro[cyclobutane-1,9′(4′H)-pyrimido[2,1-c][1,4]oxazine]-2′-carboxamide, N-[[2-[4-(1,1-dimethylethyl)-1H-1,2,3-triazol-1-yl]-4-fluorophenyl]methyl]-6′,7′-dihydro-3′-hydroxy-4′-oxo-]
[1]; Table 1a
  IC50: 10 to 100 nM

## COc1ccc(CNC(=O)c2nc3n(c(=O)c2O)CCOC32CCCC2)c(OC)c1 [Example 25, N-[(2,4-dimethoxyphenyl)methyl]-6′,7′-dihydro-3′-hydroxy-4′-oxo-spiro[cyclopentane-1,9′(4′H)-pyrimido[2,1-c][1,4]oxazine]-2′-carboxamide]
[1]; Table 1
  IC50: 10 to 100 nM

## Cc1cc(CNC(=O)c2nc3n(c(=O)c2O)CCCC32CCC2)ccc1F [Example 72, N-[(4-fluoro-3-methylphenyl)methyl]-7′,8′-dihydro-3′-hydroxy-4′-oxo-spiro[cyclobutane-1,9′(6′H)-[4H]pyrido[1,2-α]pyrimidine]-2′-carboxamide]
[1]; Table 1
  IC50: 1 to 10 nM

## O=C(NCc1ccc(F)cc1N1CCCCS1(=O)=O)c1nc2n(c(=O)c1O)CCCC21CCC1 [Example 79, N-[[4-fluoro-2-(tetrahydro-1,1-dioxido-2H-1,2-thiazin-2-yl)phenyl]methyl]-7′,8′-dihydro-3′-hydroxy-4′-oxo-spiro[cyclobutane-1,9′(6′H)-[4H]pyrido[1,2-α]pyrimidine]-2′-carboxamide]
[1]; Table 1
  IC50: 1 to 10 nM

## CN1CCn2c(nc(C(=O)NCc3ccc(F)cc3)c(O)c2=O)C12CCC2 [Example 98, Spiro[cyclobutane-1,9′(6′H)-[4H]pyrazino[1,2-a]pyrimidine]-2′-carboxamide, N-[(4-fluorophenyl)methyl]-7′,8′-dihydro-3′-hydroxy-8′-methyl-4′-oxo-]
[1]; Table 1a
  IC50: 1 to 10 nM

## CNC(=O)c1cc(F)ccc1CNC(=O)c1nc2n(c(=O)c1O)CCOC21CCC1 [Example 91, N-[[4-fluoro-2-[(methylamino)carbonyl]phenyl]methyl]-6′,7′-dihydro-3′-hydroxy-4′-oxo-spiro[cyclobutane-1,9′(4′H)-pyrimido[2,1-c][1,4]oxazine]-2′-carboxamide]
[1]; Table 1
  IC50: 1 to 10 nM

## Cc1nc(C)n(-c2cc(F)ccc2CNC(=O)c2nc3n(c(=O)c2O)CCOC32CCC2)n1 [Example 127, Spiro[cyclobutane-1,9′(4′H)-pyrimido[2,1-c][1,4]oxazine]-2′-carboxamide, N-[[2-(3,5-dimethyl-1H-1,2,4-triazol-1-yl)-4-fluorophenyl]methyl]-6′,7′-dihydro-3′-hydroxy-4′-oxo-]
[1]; Table 1a
  IC50: 10 to 100 nM

## O=C(NCc1ccc(F)cc1-n1ccnc1)c1nc2n(c(=O)c1O)CCCC21CCCC1 [Example 7, N-[[4-fluoro-2-(1H-imidazol-1-yl)phenyl]methyl]-7′,8′-dihydro-3′-hydroxy-4′-oxo-spiro[cyclopentane-1,9′(6′H)-[4H]pyrido[1,2-α]pyrimidine]-2′-carboxamide]
[1]; Table 1
  IC50: 1 to 10 nM

## O=C(NCc1ccc(F)cc1)c1nc2n(c(=O)c1O)CCOC21CCOC1 (centres unmarked) [Example 36, N-[(4-fluorophenyl)methyl]-4,5,6′,7′-tetrahydro-3′-hydroxy-4′-oxo-spiro[furan-3(2H),9′(4′H)-pyrimido[2,1-c][1,4]oxazine]-2′-carboxamide]
[1]; Table 1
  IC50: 1 to 10 nM

## CS(=O)(=O)c1cc(F)ccc1CNC(=O)c1nc2n(c(=O)c1O)CCCOC21CCC1 [Example 58, N-[[4-fluoro-2-(methylsulfonyl)phenyl]methyl]-7′,8′-dihydro-3′-hydroxy-4′-oxo-spiro[cyclobutane-1,10′(4′H)-[6H]pyrimido[2,1-c][1,4]oxazepine]-2′-carboxamide]
[1]; Table 1
  IC50: 10 to 100 nM

## O=C(NCc1ccc(F)cc1-n1cncn1)c1nc2n(c(=O)c1O)CCOC21COC1 [Example 110, Spiro[oxetane-3,9′(4′H)-pyrimido[2,1-c][1,4]oxazine]-2′-carboxamide, N-[[4-fluoro-2-(1H-1,2,4-triazol-1-yl)phenyl]methyl]-6′,7′-dihydro-3′-hydroxy-4′-oxo-]
[1]; Table 1a
  IC50: 1 to 10 nM

## Cc1ncnn1-c1cc(F)ccc1CNC(=O)c1nc2n(c(=O)c1O)CCN(C)C21CCCC1 [Example 94, Spiro[cyclopentane-1,9′(6′H)-[4H]pyrazino[1,2-a]pyrimidine]-2′-carboxamide, N-[[4-fluoro-2-(5-methyl-1H-1,2,4-triazol-1-yl)phenyl]methyl]-7′,8′-dihydro-3′-hydroxy-8′-methyl-4′-oxo-]
[1]; Table 1a
  IC50: 10 to 100 nM
